Measurements published in ChEMBL document CHEMBL3507680, “University of Dundee, Gates Library screen for HepG2 cell viability”.

Assay: Human HepG2 cell viability assay in 384 well format
Format: toxicity, cell-based
Set-up: dose 125 nL, time 70.5 hour; cytotoxicity at 70.5 h: concentration not given beside the values
Conditions: HepG2 cells, read-out: Inhibition

Compound	cytotoxicity at 70.5 h
Cc1ccc(CN2CC[C@@H]3OCCN(Cc4ccncc4)[C@H]3CC2)s1	-6.32%
O=C(CCc1ccco1)NCC1CCCN1c1cccnn1 (configuration not stated)	-2.58%
CC(C)N1CCCC2(CCN(C(=O)CCCn3cncn3)C2)C1=O (configuration not stated)	-4.98%
CCn1ccnc1CN(C)C(=O)Cn1ccc2ccccc2c1=O	-10.4%
Cc1cnc(NCc2ccc(S(=O)(=O)N(C)C(C)C)cc2)nc1C	-11.1%
Cn1cc(-c2nc(CN3CCOC(Cn4cccn4)C3)cs2)cn1 (configuration not stated)	-5.18%
COc1c(C)cnc(CN2CCOC(Cn3nc(C)cc3C)C2)c1C (configuration not stated)	-2.15%
Cc1ccc(CC(=O)N2CCN(C(C)c3ccccc3F)CC2)cn1 (configuration not stated)	-2.9%
O=C1COc2c(cccc2C(=O)N2CCCC2Cn2cccn2)N1 (configuration not stated)	-8.08%
CN1CCC(Cc2noc(CC3CC3)n2)CC1	-7.67%
Cc1ccc2c(c1)CN(C(=O)c1cccnc1)C(CN(C)C)CO2 (configuration not stated)	3.4%
N#Cc1ccnc(N2CCN(CC(O)c3ccc(F)cc3F)CC2)c1 (configuration not stated)	-3.3%
CCc1nc2n(n1)CC(NCc1cnn(-c3ccccc3)n1)CC2 (configuration not stated)	-9.79%
CC(=O)N1CCN(c2cc(-c3ccccc3)nc3c(C)c(C)nn23)CC1	0.357%
Cc1cccc(C(C)(C)CNc2cn[nH]c(=O)c2Cl)c1	18.4%
Cc1nc2ccccn2c1CN1C[C@@H](CN2CCOCC2)[C@@H](CO)C1	28.6%
CNC(=O)N1CCN(C(=O)C(C)C)CC2(CC(=O)N(C)C2)C1 (configuration not stated)	-5.77%
Cc1ncc(CN(C)C2CCCN(CCc3ccccc3)C2)n1C (configuration not stated)	-9.12%
O=S(=O)(NCC1CCCN(Cc2ccccc2F)C1)C1CC1 (configuration not stated)	-5.21%
CCC(=O)N1CCN(C(=O)NCc2c(C)cc(C)cc2C)CC1	-11.6%
O=C(Cc1csc(-c2ccccc2F)n1)NCc1cccc(C(=O)O)c1	-17.7%

Compound	cytotoxicity at 70.5 h
Cc1oc(-c2cccc(F)c2F)nc1CN(C)CCC(C)(C)O	26.5%
O=C1CO[C@@H]2CNC[C@H]2N1CC1CC1	2.73%
COc1cccc(CNC(=O)c2ccccc2-n2cc(CN)cn2)c1	-2.7%
COCCN1CCC(Cc2cnc(-c3ccccc3C(=O)O)cn2)CC1	8.51%
CCc1c(C)nc(N)nc1NCCSCc1[nH]cnc1C	-2.58%
COc1ccc(N2CCN(C(=O)[C@H]3[C@@H]4CNC[C@@H]43)CC2(C)C)cc1	18.4%
c1coc(CN2CC[C@@H]3O[C@@H](COCc4ccncc4)CC[C@@H]32)c1	3.57%
CNC(=O)c1ccc(C2CN(C(=O)c3cncs3)CCO2)nc1 (configuration not stated)	-3.2%
OC[C@H]1CN(Cc2c(Cl)cccc2Cl)C[C@H]1CN1CCCCC1	7.58%
Cc1ccccc1C(C(=O)NCc1nc(-c2ncccn2)no1)N(C)C (configuration not stated)	-6.36%
COc1ncccc1CNC(=O)N(Cc1ccc(F)cc1F)C1CC1	-12.4%
CC(C)(CNC(=O)NCCc1ccn(-c2ccccc2)n1)C(N)=O	-6.77%
CS(=O)(=O)CCCN1CCOC2(CCc3ccccc32)C1 (configuration not stated)	0.769%
CC(C)N1CCC(N2CCCC(C(=O)NCC3(C)COC3)C2)CC1 (configuration not stated)	-3.7%
CCN(CC)C(=O)c1nnc2ccc(N3CCOCC3)cc2n1	26.5%
O=C(O)CN1CCOCC(Cc2ccc(Cl)cc2)C1 (configuration not stated)	-7.85%
NC(=O)CN1CCCN(C(=O)Cc2ccc(F)c(Br)c2)CC1	-8.24%
CCC1(C(=O)O)CCCN(C(=O)c2ccc(N3CCN(C)CC3)cc2)C1 (configuration not stated)	21.4%
CC(C(=O)NCc1cn2cc(Br)ccc2n1)S(C)(=O)=O (configuration not stated)	-5.34%
CCn1cnnc1CNC(=O)N1CCN(c2ccc(OC)cc2)CC1	-11.7%
CCC(=O)N(CC(N)=O)Cc1cccc(Oc2ccccc2)c1	0.0156%

Compound	cytotoxicity at 70.5 h
CC(C#N)CN(C)Cc1cc(Cl)cc2cccnc12 (configuration not stated)	-0.893%
COC(=O)c1cccc(C(=O)N2CCN(c3ccc(Cl)cc3)CC2)n1	-6.13%
Cc1nc(CNCC2CCCN2c2cccnn2)no1 (configuration not stated)	-1.22%
CCCc1ccc(N2CCN(Cc3nc4ccccc4n3C)CC2)cc1	19.9%
CO[C@H]1CN(C(=O)c2ccc3oc(C)cc3c2)CC[C@@]12CCCO2	-13.4%
Cc1c[nH]nc1C1CN(c2ncccn2)CCO1 (configuration not stated)	-3.49%
Cc1cnc2c(S(=O)(=O)N(C)C3CCS(=O)(=O)C3)cccc2c1 (configuration not stated)	-16.4%
O=C(O)CCCN1C[C@@H](c2ccccc2F)[C@@]2(CCCCC(=O)N2)C1	-2.59%
CN(Cc1ccncn1)c1nccc(CCC(F)(F)F)n1	23%
COCCCc1nc(-c2ccc(S(=O)(=O)N3CCCC3)cc2)cs1	-4.93%
O=C1CCCCCN1CCc1nc(-c2cccnn2)no1	-6.78%
O=C(Cc1cccs1)N1CC[C@H]2[C@@H]1CCC(=O)N2c1cccnc1	2.43%
COC1CCN(CCNc2ncc(Br)cc2C)CC1	-1.86%
CN1CCN(C(=O)CCc2ccccc2)Cc2cccnc21	16.1%
CN(Cc1ccsc1)C(=O)CN1CCCCC1Cn1cccn1 (configuration not stated)	-10%
CCNC(=O)N1C[C@@H](NC(C)=O)[C@H](c2ccc(C)o2)C1	-2.82%
O=C(c1cccc(=O)[nH]1)N(Cc1ccsc1)CC1CCCO1 (configuration not stated)	5.57%
CCCN1CCCN(C(=O)C(CC)N2CCCC2=O)CC1 (configuration not stated)	-14.5%
CNc1ncc2c(n1)CN(C1CC(C)(C)NC(C)(C)C1)C2=O	-12.6%
Cc1noc(C2CCN(C(=O)c3cc(Cl)c(Cl)n3C)CC2)n1	-2.97%
COc1cc(CNC(=O)NCCCF)cc(Br)c1OC	-2.35%

Compound	cytotoxicity at 70.5 h
CN(CC1COCCO1)c1ncnc2cc(F)ccc12 (configuration not stated)	19%
COc1ccccc1C1(CNCc2cccc(C#N)c2)CCOCC1	-9.16%
N#Cc1ccc(NC2CCN(c3ncccn3)CC2)cc1C(F)(F)F	5.96%
C[C@@H]1CN(C(=O)CCc2cnn(C)c2)C[C@@]1(O)C1CCC1	-5.7%
COc1ccc(Br)c(NC(=O)NCc2ncnn2C)c1	-9.33%
Cc1nc2[nH]cnc(Nc3cc(C)n(C)n3)c-2n1	-1.58%
COCCN(C(=O)c1c[nH]c2ncccc12)C1CCCC1	0.976%
CS(=O)(=O)NCc1cnc2n1CCN(Cc1cccnc1)CC2	-9.03%
CC(Nc1ccc(CCN2CCCCC2)cc1)C(=O)N(C)CCC#N (configuration not stated)	-6.46%
O=C(NCCN1CCOCC1)c1ccnn1-c1ccc2ccccn12	3.81%
CCn1cnnc1C1CCN(C(=O)c2ccoc2C)CC1	11.9%
Cc1cnc(CC2COCCN(C(=O)c3cncnc3)C2)cn1 (configuration not stated)	-5.02%
COc1ccc(F)c(CN2CCCC(c3cc(O)nc(C)n3)C2)c1 (configuration not stated)	-3.96%
CCN(CC1=CCN(C)CC1)C(=O)CCOC	-6.72%
CCOCC1CN(C(=O)c2cscn2)Cc2cn(C)nc21 (configuration not stated)	-4.69%
CC(C)(C)C(=O)NCCn1ccc(-c2ccncc2)n1	-4.99%
O=C(Nc1ccccc1OC1CCOC1)c1cc[nH]n1 (configuration not stated)	16.6%
CCc1nnc(CN(C)Cc2nc(-c3ccccc3Cl)oc2C)o1	-3.53%
CC(c1ncc(C(C)(C)C)o1)N1CCN(c2ccncc2)CC1 (configuration not stated)	-2.28%
